In the assay the test system is A2058. The experiment in a line: Cytotoxicity against human A2058 cells assessed as survival at 250 uM relative to control. As to conditions: read-out: Survival. In kind it is functional.

For `CC1=C(NC(=O)CC(C)C)C(=O)N(CCCC(=O)O)C1=O`, the viability at 250 µM amounted to 100%.

(Values after ChEMBL document CHEMBL4118041, “Targeted Dereplication of Microbial Natural Products by High-Resolution MS and Predicted LC Retention Time” (2017).)
